Assay results: PubChem BioAssay (NCI)
“And” between values parts separate entries of the source, which are not always exact repeats. Equal values may be shown once.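 In this assay, cells in 96-well plates receive the compound at five concentrations for 48 hours. Endpoints are linearly interpolated between the surrounding concentrations. Here, GI50 denotes the concentration required for 50% inhibition of growth. Definition used: TGI = concentration required for complete inhibition of growth.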

How the values were obtained:
Assay in all cases: NCI tumour cell line growth inhibition, 48 h
786-0 renal = system: 786-0 renal
A549 NSCLC = system: A549 NSCLC
HL-60(TB) leukemia = system: HL-60(TB) leukemia
M14 melanoma = system: M14 melanoma
MALME-3M melanoma = system: MALME-3M melanoma
MOLT-4 leukemia = system: MOLT-4 leukemia
NCI-H226 lung = system: NCI-H226 lung
OVCAR-4 ovarian = system: OVCAR-4 ovarian
SF-295 CNS = system: SF-295 CNS
SNB-19 CNS = system: SNB-19 CNS

| Compound | TGI (786-0 renal) | TGI (A549 NSCLC) | TGI (HL-60(TB) leukemia) | TGI (M14 melanoma) | TGI (MALME-3M melanoma) | TGI (MOLT-4 leukemia) [µM] | TGI (NCI-H226 lung) | TGI (OVCAR-4 ovarian) | TGI (SF-295 CNS) | TGI (SNB-19 CNS) | GI50 (HL-60(TB) leukemia) | GI50 (MALME-3M melanoma) | GI50 (OVCAR-4 ovarian) | GI50 (SNB-19 CNS) | GI50 (M14 melanoma) [µM] |
| --- | --- | --- | --- | --- | --- | --- | --- | --- | --- | --- | --- | --- | --- | --- | --- |
| CCCCCCC(=O)OC[n+]1cccc(-c2c(COC(=O)NC(C)C)c(COC(=O)NC(C)C)c3n2CCC3)c1 | > 69.8 µM | > 100 µM | > 48.9 µM | > 100 µM | 98.5 µM | > 80.7 | > 100 µM | > 69.1 µM | > 100 µM | > 100 µM | – | – | – | – | – |
| CC(C)OP(=O)(OC(C)C)C(Nc1cccc(C(F)(F)F)c1)c1ccccc1 (centres undefined) | > 100 µM | > 100 µM | > 100 µM | > 100 µM | > 100 µM | 65.5 | > 100 µM | > 100 µM | > 100 µM | > 100 µM | – | – | – | – | – |
| Cc1ccc(F)c2c(=O)cc(-c3ccccc3)[nH]c12 | > 100 µM | > 100 µM | > 100 µM | > 100 µM | > 100 µM | > 100 | > 100 µM | > 100 µM | > 100 µM | – | – | – | – | – | – |
| Cc1ccc(Nc2cn(COCc3ccccc3)c(=O)[nH]c2=O)cc1 | > 100 µM | > 100 µM | > 100 µM | > 100 µM | – | > 100 | > 100 µM | > 100 µM | > 100 µM | > 100 µM | – | – | – | – | – |
| O=[N+]([O-])c1ccc2[nH]c(O)c(N=NC(=S)Nc3ccccc3)c2c1 | 17.7 µM | 20.8 µM | 36.3 µM | 22.4 µM | – | > 100 | 65.4 µM | 29.2 µM | 16.6 µM | 27.6 µM | – | – | – | – | – |
| CC(Nc1n[nH]c(=O)c2c1nnn2Cc1ccccc1)c1ccccc1 (centres undefined) | 30.1 µM | > 100 µM | > 100 µM | > 100 µM | > 100 µM | > 100 | – | > 100 µM | > 100 µM and 61.1 µM | > 100 µM and 66.2 µM | 37.4 µM and > 100 µM | > 100 µM and 24.7 µM | > 100 µM and 26.8 µM | > 100 µM and 21.7 µM | – |
| C=CCC1C2CCC(O[Si](C(C)C)(C(C)C)C(C)C)(C(C(=O)OC)C2)C1O (centres undefined) | > 100 µM | > 100 µM | 36.7 µM | > 100 µM | – | > 100 | > 100 µM | > 100 µM | > 100 µM | > 100 µM | – | – | – | – | – |
| CCOC(=O)c1c(NC(=O)c2ccc(Br)cc2)sc2c1CCCC2 | > 100 µM | > 100 µM | > 100 µM | > 100 µM | – | > 100 | > 100 µM | – | > 100 µM | > 100 µM | – | – | – | – | – |
| COc1nc(C)nc2c1ncn2Cc1ccccc1 | > 100 µM | > 100 µM | > 100 µM | > 100 µM | > 100 µM | – | > 100 µM | > 100 µM | > 100 µM | > 100 µM | – | – | – | – | – |
| C(=N/NC1=NCCN1)/c1c2ccccc2c(/C=N\NC2=NCCN2)c2ccccc12 | 1.86 µM and 1.87 µM | 0.258 µM and 1.37 µM and 1.12 µM | 1.13 µM and 2.33 µM and 0.725 µM | 0.568 µM and 0.697 µM | 0.259 µM and 0.564 µM and 0.477 µM | – | 0.352 µM and 0.239 µM and 0.445 µM | 0.4 µM and 0.584 µM and 1.1 µM | 1.98 µM and 2.11 µM and 2.71 µM | 0.458 µM and 0.922 µM and 2.15 µM | – | – | – | – | 0.25 |
| CC[C@H](C)[C@H]1NC(=O)[C@@H](NC(=O)[C@@H](CC(C)C)N(C)C(=O)C2CCCN2C(=O)[C@H](C)O)[C@@H](C)OC(=O)[C@H](Cc2ccccc2)N(C)C(=O)[C@@H]2CCCN2C(=O)[C@H](CC(C)C)NC(=O)[C@@H](C)C(=O)[C@H](C(C)C)OC(=O)C[C@@H]1O (some centres undefined) | 0.0119 µM | – | > 62.5 µM | 0.0257 µM | 0.0213 µM | > 62.5 | 0.00705 µM | 0.0078 µM | 0.0134 µM | < 0.00625 µM | – | – | – | – | – |
| CSc1nc(-c2ccc(Cl)cc2)c(C#N)c(=O)[nH]1 | > 100 µM | > 100 µM | > 100 µM | > 100 µM | – | > 100 | > 100 µM | > 100 µM | > 100 µM | > 100 µM | – | – | – | – | – |
| Cc1nc2nn(C)cc2c(=O)n1/N=C/c1ccccc1 | > 100 µM | > 100 µM | > 100 µM | – | > 100 µM | > 100 | > 100 µM | > 100 µM | > 100 µM | > 100 µM | – | – | – | – | – |
| COc1ccc(/C=C(\Cl)c2ccc(OC)cc2)cc1 | > 100 µM | > 100 µM | > 100 µM | > 100 µM | > 100 µM | > 100 | > 100 µM | > 100 µM | – | > 100 µM | – | – | – | – | – |
| CC(=O)Nc1nnc(S(=O)(=O)NC(=S)Nc2ccc(Cl)cc2)s1 | > 100 µM | > 100 µM | > 100 µM | > 100 µM | > 100 µM | > 100 | – | > 100 µM | > 100 µM | > 100 µM | – | – | – | – | – |
| CN(CCO)/N=N/c1nc[nH]c1C(N)=O | – | > 100 µM | > 100 µM | > 100 µM | > 100 µM | > 100 | > 100 µM | > 100 µM | > 100 µM | > 100 µM | – | – | – | – | – |
| Cc1ccc(-n2cc(-c3ccc(Cl)cc3)c3c2N=CN2NC(c4cccs4)=NC32)cc1 (centres undefined) | 15.5 µM | > 100 µM | 45.1 µM | > 100 µM | > 100 µM | – | 80.7 µM | 6.17 µM | 25.2 µM | 51.1 µM | – | – | – | – | – |
| C=C(CC)C[C@@H]1C[C@]2(C(=O)OC)c3[nH]c4ccccc4c3CCN2C1=O | 33.5 µM | 32.4 µM | 82.5 µM | 36.5 µM | 72.5 µM | > 100 | – | > 100 µM | 31.1 µM | > 100 µM | – | – | – | – | – |
| COC(=O)CNCC1OC2OC(C)(C)OC2C1N=[N+]=[N-] (centres undefined) | > 100 µM | > 100 µM | > 100 µM | – | – | > 100 | > 100 µM | > 100 µM | > 100 µM | > 100 µM | – | – | – | – | – |
| CC(=O)Oc1cc(S(=O)(=O)Nc2n[nH]c(N)n2)c(S)cc1Cl | > 100 µM | > 100 µM | > 100 µM | > 100 µM | > 100 µM | > 100 | – | > 100 µM | > 100 µM | > 100 µM | – | – | – | – | – |
| COC(=O)[C@@H]1[C@H](O)CC[C@H]2[C@@]1(C)CC[C@@H](C)[C@]2(COC(C)=O)CC(=O)c1ccoc1 | > 50 µM | > 50 µM | > 50 µM | > 50 µM | – | > 50 | > 50 µM | > 50 µM | > 50 µM | > 50 µM | – | – | – | – | – |
